In patent US20060147348A1, “Sampling device and methods” (priority 2004, published 2006):
Read-outs that look alike come from different tables or passages of the source.

Assay: Retention of THC in the mouth after smoking marijuana: THC in saliva and tongue mucus by quantitative GC/MS
Assay type: in vivo, human
Settings: for concentration at 5 min / concentration at 2 h / concentration at 6 h / concentration at 24 h: human, inhaled; for concentration at 5 min: 5 minutes post smoking 0.2 g of marijuana; for concentration at 2 h: 2 hours post smoking 0.2 g of marijuana; for concentration at 6 h: 6 hours post smoking 0.2 g of marijuana; for concentration at 24 h: 24 hours post smoking 0.2 g of marijuana
From the text: 0.2 grams (g) of marijuana was smoked by a test subject. Mucosal surface samples and saliva were collected at different time intervals by scraping the top side of the tongue a polypropylene card having a width×length×thickness of about 2 inches×about 3 inches×about 0.04 inches, using the about 2 inch edge of the card as an abrasive. The mucus specimens were dripped into a glass vial for further analysis. Saliva specimens were collected at the same times by directly expectorating saliva into glass vials.
The specimens were analyzed by a quantitative GC/MS method for the detection of THC.

[1] = saliva (expectorated), read-out: THC Concentration, Saliva
[2] = tongue mucus (mucosal scrapings), mucosal scrapings from the top of the tongue, read-out: THC Concentration, Mucus

Structure (SMILES): CCCCCc1cc(O)c2c(c1)OC(C)(C)[C@@H]1CCC(C)=C[C@@H]21 [THC, Tetrahydrocannabinol]
- concentration at 5 min [1]: 115 ng/mL
- concentration at 2 h [1]: 16 ng/mL
- concentration at 6 h [1]: 11 ng/mL
- concentration at 24 h [1]: 2.1 ng/mL
- concentration at 5 min [2]: 587 ng/mL
- concentration at 2 h [2]: 412 ng/mL
- concentration at 6 h [2]: 123 ng/mL
- concentration at 24 h [2]: 44 ng/mL
- Retention of THC in mucus specimen compared with saliva (mucus vs saliva, 5 minutes to 24 hours after smoking 0.2 g of marijuana): significantly higher concentration and for longer time than in saliva
